Measurements as given in US4749798A, “Fluoro coumarins as antilymphoedema agents” (priority 1984, dated 1988).
Entries after “also recorded” stand apart in the source; their conditions may differ. Read-outs that look alike come from different tables or passages of the source.

What was measured:
[1] = system: carrageenan induced edema of the rats hind paw; assay: carrageenan induced edema of the rat hind paw; format: in vivo; settings: for activity relative to coumarin: "at least 1.5-2.5 times more active than coumarin"; for reduction of carrageenan induced edema: at all the times (1; 3; 4 and 5 h)
Source text: 6-fluoro coumarin and the compounds of the invention are also effective in the management of the acute inflammation.
The carrageenan edema test proposed by Winter C. A., Risley A., Noss G. W. (Proc. Soc. Exp. Biol., 101, 544, 1962) was used.
The compounds, administered i.p. 30' before the carrageenan as suspension in 1% aqueous carboxymethylcellulose homogeneized by ultrasounds, were compared with coumarin at different dose-levels on 6 animal groups. The percent reduction of the rat hind paw edema was evaluated at different times.

[2] = system: burning induced oedema of hind paws; assay: burning induced oedema test; format: in vivo, Sprague-Dawley male rats; settings: for activity relative to 6-fluoro coumarin (equiactive): burning induced oedema; for % inhibition / Paw volume, DV: 12 h
Procedure: Reduction of the burning induced oedema test has been also used to evidentiate the antiinflammatory activity and the proteolytic mechanism of action of the compounds of the invention. 18 hours-fasted Sprague-Dawley male rats, body weight: 170-220 g, are used in this testing procedure. The animals are divided into five animal groups and the volume (in ml) of the posterior hind paws is measured before these paws are burnt by immersion for 22 seconds in 55° C. heated water. 15 minutes after burning, the animals are treated, by oral route, with different dosages of the investigated compounds and placebo. The volume of paws is measured 6, 12 and 18 hours after burning and the increased volume of the paws is evaluated.

[3] = system: mouse peritoneal macrophages; assay: proteolysis by mouse peritoneal macrophages; settings: for Potency ratio in the proteolytic test: 50 mg/kg i.p. in sesame oil, 10 replication, coumarin = 1; for Mean ICA-soluble fragm. (24 h-0 h) x 10^6 cell: 10 mice; for minimal effective dose: Mus musculus, Peritoneal macrophage, ip; for increase in proteolysis: at the higher doses, coumarin at similar doses
Source text: Ability of the 6-fluoro coumarin itself, and the other compounds of the invention, to increase proteolysis by mouse peritoneal macrophages is shown by using the testing procedure reported by T. Bolton and J. R. Casley-Smith, Experimentia, 31, 275 (1975).
Due to the great standard error, many replications are necessary in order to obtain reliable dose-response curves.

[4] = system: blood-dot area in right ear; assay: re-absorption of citrated blood injected in the rabbit ear (blood-dot area); format: in vivo, New Zealand rabbits; settings: oral, placebo 20.3
Procedure: Finally, the compounds of the invention are able to induce re-absorption of the total citrated blood when blood is injected in the right ear of New Zealand rabbits. 12 hours after blood inoculation into ear, the animal were randomized and treated with scalar doses of the investigated compounds administered for 4 days by oral route. The blood-dot areas are evaluated and compared with the areas of the control animals treated with placebo only. In table 5 are reported some experimental results.

dog liver microsomes = assay: incubation of labelled C^14-6 fluoro coumarin with dog liver microsomes; format: in vitro ADME; settings: C^14-labelled
Procedure: Using the method reported by T. C. Butler et al. (Arch. Intern. Pharmacod. Ther., 228, 4 (1977)), labelled C^14 -6 fluoro coumarin was incubated with dog liver microsomes.

lymphoedemas = assay: preliminary experiments in humans with primary and secondary lymphoedemas; format: in vivo; settings: capsules of 50 mg
Procedure: So, a very restricted number of selected male and female patients, affected by primary and secondary lymphoedemas, with intact renal and hepatic functions, was treated with the compounds of the invention, particularly with 6-fluoro coumarin.
In the absence of any other therapeutic treatment, the selected schedule of treatment foresees administration of capsules, many times pro die.
The diagnostic parameters investigated are: general and gastric clinical tolerability; number of red blood cell, leukocites, neutrophiles and platelets; haemoglobin concentration, γ-glutamyl transpeptidase; serum creatinine and volume of edema.

S. Pombae = assay: forward mutation in S. Pombae; format: cell-based
[5] = system: S-typhimurium TA 1535, TA 1537, TA 1538, TA 98 and TA 100; assay: Ames test; format: cell-based
coagulation factors = assay: coagulation parameters (DPTT, Hepato quick, clotting time); format: in vivo
[6] = system: S. typhimurium (TA 1535, TA 1537, TA 1538, TA 98, TA 100); settings: cited from earlier work
[7] = Occupational Safety and Health Administration; cited from earlier work
[8] = cited from earlier work
[9] = metabolism after oral administration to rabbits, analysis of faeces and urines over 24 hours; settings: rabbit, coumarin in similar experimental conditions
Procedure: In a second experiment, C^14 -labelled 6-fluoro coumarin was administered by oral route to rabbits and faeces and urines were collected during a period of 24 hours. As it is usual for metabolic studies, the excreta were treated by β-glucoronidase and aryl sulfatase and extracted by methylene chloride in a little acid medium. […] In these studies, labelled 6-fluoro coumarin having a 1 Ci/mole specific radioactivity was used.

coagulation = settings: Schofield; Feuer et al.; cited from earlier work
[10] = oral, 2 consecutive days, equimolecular doses

O=c1oc2ccc(F)cc2cc1Br [3-Br--6-fluoro, 6-fluoro-3-bromo-2H-1-benzopyran-2-one]
activity relative to coumarin [1]: 1.5-2.5 times
reduction of carrageenan induced edema [1]: reduce carrageenan induced edema of the rats hind paw at all the times
activity relative to 6-fluoro coumarin (equiactive) [2]: 0.85-1.5 times
Potency ratio in the proteolytic test [3]: 1.75
% reduction of blood-dot area after 4 days ([4]; 50 mg/kg pro die): 69%

O=c1oc2ccc(F)cc2cc1Cl [3-Cl--6-fluoro, 6-fluoro-3-chloro-2H-1-benzopyran-2-one]
Potency ratio in the proteolytic test [3]: 1.4

Cc1cc(=O)oc2ccc(F)cc12 [4-methyl-6-F, 6-fluoro-4-methyl-2H-1-benzopyran-2-one]
activity relative to coumarin [1]: 1.5-2.5 times
reduction of carrageenan induced edema [1]: reduce carrageenan induced edema of the rats hind paw at all the times
activity relative to 6-fluoro coumarin (equiactive) [2]: 0.85-1.5 times
Potency ratio in the proteolytic test [3]: 1.78
% reduction of blood-dot area after 4 days ([4]; 50 mg/kg pro die): 65%

O=c1ccc2cc(F)cc(F)c2o1 [6,8-difluoro, 6,8-difluoro-2H-1-benzopyran-2-one]
Potency ratio in the proteolytic test [3]: 1.45

O=c1ccc2cc(F)ccc2o1 [6-fluoro coumarin, 6-fluoro-2H-1-benzopyran-2-one]
activity relative to coumarin [1]: 1.5-2.5 times
reduction of carrageenan induced edema [1]: reduce carrageenan induced edema of the rats hind paw at all the times
metabolism by cytochromes (dog liver microsomes): not metabolized by cytochromes
recovery of unchanged compound (dog liver microsomes): 80%
effects in gene mutation test (somatic mammalian cells): No kinds of effects are noticed
tolerability (lymphoedemas; 10 treated patients, all dosages investigated): excellent
patients with significant reduction of the oedema volume (lymphoedemas; of 10 treated patients): 4 patients
effects in forward mutation test (S. Pombae): No kinds of effects are noticed
mutagenic property in the Ames test [5]: no mutagenic property is evident
effects in mitotic genic conversion test (S. cerevisiae): No kinds of effects are noticed
effect on DPTT (coagulation factors; [10]): not able to modify
effect on Hepato quick (coagulation factors; [10]): not able to modify
effect on clotting time (coagulation factors; [10]): not able to modify
% inhibition ([2]; 12.5 mg/kg oral): no sign
Paw volume, DV ([2]; 12.5 mg/kg oral): 0.86 mL
Paw volume, 12 h value ([2]; 12.5 mg/kg oral, basal 1.348): 2.207 mL
% inhibition ([2]; 25.0 mg/kg oral): 37%
Paw volume, DV ([2]; 25.0 mg/kg oral): 0.56 mL
Paw volume, 12 h value ([2]; 25.0 mg/kg oral, basal 1.504): 2.060 mL
% inhibition ([2]; 50.0 mg/kg oral): 67%
Paw volume, DV ([2]; 50.0 mg/kg oral): 0.29 mL
Paw volume, 12 h value ([2]; 50.0 mg/kg oral, basal 1.464): 1.760 mL
% inhibition ([2]; 1000.0 mg/kg oral): 71%
Paw volume, DV ([2]; 1000.0 mg/kg oral): 0.26 mL
Paw volume, 12 h value ([2]; 1000.0 mg/kg oral, basal 1.416): 1.676 mL
Significance of difference from control ([3]; 3.12 mg/kg i.p.): NS (p > 0.05)
Mean ICA-soluble fragm. (24 h-0 h) x 10^6 cell ([3]; 3.12 mg/kg i.p.): 0.22 mM glycin
Significance of difference from control ([3]; 6.25 mg/kg i.p.): NS (p > 0.05)
Mean ICA-soluble fragm. (24 h-0 h) x 10^6 cell ([3]; 6.25 mg/kg i.p.): 0.19 mM glycin
Significance of difference from control ([3]; 12.5 mg/kg i.p.): * (0.05 > p > 0.01)
Mean ICA-soluble fragm. (24 h-0 h) x 10^6 cell ([3]; 12.5 mg/kg i.p.): 0.29 mM glycin
Mean ICA-soluble fragm. (24 h-0 h) x 10^6 cell ([3]; 25 mg/kg i.p.): 0.37 mM glycin
Significance of difference from control ([3]; 50 mg/kg i.p.): * (0.05 > p > 0.01)
Potency ratio in the proteolytic test [3]: 11.5
Mean ICA-soluble fragm. (24 h-0 h) x 10^6 cell ([3]; 50 mg/kg i.p.): 0.34 mM glycin
Mean ICA-soluble fragm. (24 h-0 h) x 10^6 cell ([3]; 100 mg/kg i.p.): 0.40 mM glycin
minimal effective dose ([3]; read-out: dosage level with proteolysis significantly greater than the control): > 6.25 mg/kg
minimal effective dose ([3]; read-out: dose from which stimulation of protein digestion starts): 12.5 mg/kg
increase in proteolysis [3]: threefold
% reduction of blood-dot area after 4 days ([4]; 25 mg/kg pro die): 64.13%
% reduction of blood-dot area after 4 days ([4]; 50 mg/kg pro die): 92%

CC(C)OC1C=Cc2cc(F)ccc2O1 (stereo not shown) [6-fluoro-2.xi.-isopropoxy-2H-1-benzopyrane]
activity relative to coumarin [1]: 1.5-2.5 times
reduction of carrageenan induced edema [1]: reduce carrageenan induced edema of the rats hind paw at all the times
activity relative to 6-fluoro coumarin (equiactive) [2]: 0.85-1.5 times
Potency ratio in the proteolytic test [3]: 1.61

COC1C=Cc2cc(F)ccc2O1 (stereo not shown) [6-fluoro-2.xi.-methoxy-2H-1-benzopyrane]
% Reduction of the edema by carrageenan ([1]; 0.76 mg/kg i.p., 3 h): 58%
% Reduction of the edema by carrageenan ([1]; 1.55 mg/kg i.p., 3 h): 70%
% Reduction of the edema by carrageenan ([1]; 3.12 mg/kg i.p., 3 h): 79%
% Reduction of the edema by carrageenan ([1]; 3.12 mg/kg i.p., 5 h): 87%
% Reduction of the edema by carrageenan ([1]; 6.25 mg/kg i.p., 3 h): 84%
activity relative to coumarin [1]: 1.5-2.5 times
reduction of carrageenan induced edema [1]: reduce carrageenan induced edema of the rats hind paw at all the times
activity relative to 6-fluoro coumarin (equiactive) [2]: 0.85-1.5 times

OC1C=Cc2cc(F)ccc2O1 (stereo not shown) [6-fluoro-2H--1-benzopyran-2.zeta.-ol, 6-fluoro-2H-1-benzopyran-2.xi.-ol]
activity relative to coumarin [1]: 1.5-2.5 times
reduction of carrageenan induced edema [1]: reduce carrageenan induced edema of the rats hind paw at all the times
Potency ratio in the proteolytic test [3]: 1.45
% reduction of blood-dot area after 4 days ([4]; 40 mg/kg pro die): 59%

OC1Oc2ccc(F)cc2C=C1Br (stereo not shown) [6-fluoro-3-bromo-2.xi.-hydroxy-2H-1-benzopyrane]
% Reduction of the edema by carrageenan ([1]; 0.76 mg/kg i.p., 3 h): 65%
% Reduction of the edema by carrageenan ([1]; 1.55 mg/kg i.p., 3 h): 72%
% Reduction of the edema by carrageenan ([1]; 3.12 mg/kg i.p., 3 h): 88%
% Reduction of the edema by carrageenan ([1]; 3.12 mg/kg i.p., 5 h): 84%
% Reduction of the edema by carrageenan ([1]; 6.25 mg/kg i.p., 3 h): 87%

COC1Oc2ccc(F)cc2C=C1Br (stereo not shown) [6-fluoro-3-bromo-2.xi.-methoxy-2H-1-benzopyrane]
activity relative to coumarin [1]: 1.5-2.5 times
reduction of carrageenan induced edema [1]: reduce carrageenan induced edema of the rats hind paw at all the times
activity relative to 6-fluoro coumarin (equiactive) [2]: 0.85-1.5 times

O=c1ccc2ccccc2o1 [coumarin, 2H-1-benzopyran-2-one]
% Reduction of the edema by carrageenan ([1]; 1.55 mg/kg i.p., 3 h): 23%
% Reduction of the edema by carrageenan ([1]; 3.12 mg/kg i.p., 3 h): 53%
% Reduction of the edema by carrageenan ([1]; 3.12 mg/kg i.p., 5 h): 53.4%
% Reduction of the edema by carrageenan ([1]; 6.25 mg/kg i.p., 3 h): 78%
effects in gene mutation test (somatic mammalian cells): positive responder
mutagenicity [6]: weak mutagenic substance
carcinogen category [7]: category I carcinogen
effects in forward mutation test (S. Pombae): positive responder
effects in mitotic genic conversion test (S. cerevisiae): positive responder
metabolism in man [8]: extensively metabolized in man upon first pass through the liver; also recorded: C-3 hydroxylation practically absent in man
effect on Hepato quick (coagulation factors; in vivo, po): moderately influences Hepato quick (in decreasing way)
metabolism (hydroxylation / lactone ring opening) [9]: metabolized by hydroxylation and also by δ-lactone ring opening; also recorded: metabolized by hydroxylation and by δ-lacton ring opening
inhibition ([2]; 50 mg/kg): 35%
times less active than 6-fluoro coumarin ([2]; 50 mg/kg): about 2 times
anticoagulant activity (coagulation): anticoagulant activites
increase in proteolysis [3]: 2.2 fold
% reduction of blood-dot area after 4 days ([4]; 50 mg/kg pro die): 67.31%

O=c1oc2ccccc2c(O)c1Cc1c(O)c2ccccc2oc1=O [dicoumarol, reference compound]
effect on DPTT (coagulation factors; [10]): very strong effect
effect on Hepato quick (coagulation factors; [10]): very strong effect
anticoagulant activity (coagulation): anticoagulant activites
